Data: US10426818B2, “Method and pharmaceutical composition for use in the treatment of diabetes” (INSERM (INSITUT NATIONAL DE LA SANTE ET DE LA RECHERCHE …, priority 2015, dated 2019)
Like-named read-outs stand apart in the source and are kept apart here.

Test system: overweighed healthy volunteers
Conditions: for ΔGIR (difference in Glucose Infusion Rate): single 2 hours continuous intravenous infusion, 8 volunteers
Method: This trial is a Phase 1, exploratory, monocentric, placebo-controlled, double blinded, crossover study.
Two groups of 8 male, overweighed (BMI 25-30 kg/m^2) healthy volunteers were included in this study.
The first 8 volunteers were included in the low dose group.
The next 8 volunteers were included in the high dose group.
Euglycemic Hyperinsulinemic Clamp Technique • Insulin (Actrapid®, NovoNordisk, Copenhagen, Denmark) was perfused for 4 hours at a constant supra-physiological rate (1 mU·Kg-1·min-1) resulting in the complete inhibition of hepatic glucose production. • Blood glucose level was measured every 5 min and maintained for 4 hours at a constant physiological value (5 mmol/l) adapting the rate of infusion of a 20% glucose solution.
The primary endpoint (deltaGIR) was the difference between the GIR measured during the steady state ending the “investigational product” perfusion phase (GIRperfusion) and the GIR measured during the steady state ending the “basal” phase (GIRbasal). Delta GIR=GIRperfusion−GIRbasal

(pyr1)-Apelin-13
change in ΔGIR versus placebo (in words) (9 nmol/kg intravenous, p=0.06): non-significant increase
ΔGIR (difference in Glucose Infusion Rate) (9 nmol/kg, p=0.06 versus placebo): +2.21±0.54 mg/kg/min
insulin sensitivity versus placebo (in words) (30 nmol/kg intravenous, p=0.03): significant improvement
ΔGIR (difference in Glucose Infusion Rate) (30 nmol/kg, p=0.03 versus placebo): +1.72±0.47 mg/kg/min
